# Experimental data as given in US12162904B2, “Mannose derivative and application thereof” (priority 2021, dated 2024).
# Columns and labels:
# [1] = Determination of lipid-water partition coefficient (n-octanol/PBS); assay type: physicochemical; conditions: n-octanol / PBS 0.025 M, pH 7.4
# Description: To a 5 mL centrifuge tube were added 100 μL of a ^99mTc-CN7DM solution with a radioactivity of 10 μCi, 1 mL of n-octanol and 900 μL of phosphate buffered saline (PBS) (0.025 M and pH 7.4). The mixture was vortexed at a rotation speed of 2,500 rpm for 3 min, subjected to standing for stratification, and centrifuged at 9,000 rpm in a centrifuge for 5 min. Three samples (each for 100 μL) were taken from each of the two phases, and determined by a γ-counter for the radioactivity counts.
# [2] = Stability in normal saline at room temperature (radiochemical purity by TLC); assay type: physicochemical; conditions: 4 h
# Description: (§1) The radiochemical purity of ^99mTc-CN7DM was determined by TLC after being placed in normal saline at room temperature and in mouse serum at 37° C. for 4 h.
# [3] = Stability in mouse serum at 37° C. (radiochemical purity by TLC); assay type: in vitro ADME; conditions: 4 h
# Description: as §1
# [4] = tested on: mice bearing S180 tumors; assay: Biodistribution determination in tumor-bearing mice; assay type: in vivo; conditions: for Blood uptake / Bone uptake / Heart uptake / Kidney uptake / Liver uptake / Lung uptake / Muscle uptake / Small intestine uptake / Spleen uptake / Thyroid gland uptake / Tumor uptake: n = 5, mean ± SD; for Tumor uptake: S180 tumor
# Description: 0.1 mL of the ^99mTc-CN7DM labeling solution (370 kBq) was injected into mice bearing S180 tumors through the tail vein. After recording the injection time, the mice were subjected to sacrificing by cervical […] at different time points of 30 min and 120 min (5 mice were executed at each time), dissecting, taking out tissues or organs of interest such as heart, liver, lungs, kidneys, spleen, bone, muscles, small intestine, blood and tumors. A radioactivity count of each of the tissues or organs was measured by the γ-counter, and uptake value of each of the tissues or organs in % ID/g was obtained by converting a mass of each of the tissues or organs.
# [5] = 30 min after tail vein injection
# [6] = 120 min after tail vein injection
smiles,measurement,setting,value
[99Tc+].[C-]#[N+]CCCCCCCC(=O)NC1C(O)OC(CO)C(O)C1O.[C-]#[N+]CCCCCCCC(=O)NC1C(O)OC(CO)C(O)C1O.[C-]#[N+]CCCCCCCC(=O)NC1C(O)OC(CO)C(O)C1O.[C-]#[N+]CCCCCCCC(=O)NC1C(O)OC(CO)C(O)C1O.[C-]#[N+]CCCCCCCC(=O)NC1C(O)OC(CO)C(O)C1O.[C-]#[N+]CCCCCCCC(=O)NC1C(O)OC(CO)C(O)C1O (centres unmarked) [^99mTc-CN7DM],log P (lipid-water partition coefficient),[1],−3.15±0.06
same,radiochemical purity after standing (stability),[2],greater than 90%
same,radiochemical purity after standing (stability),[3],greater than 90%
same,Tumor/Blood ratio,[4]; [5],3.79
same,Tumor/Muscle ratio,[4]; [5],3.25
same,Blood uptake,[4]; [5],1.61 ± 0.17 % ID/g
same,Bone uptake,[4]; [5],1.41 ± 0.17 % ID/g
same,Heart uptake,[4]; [5],2.08 ± 0.26 % ID/g
same,Kidney uptake,[4]; [5],6.22 ± 0.91 % ID/g
same,Liver uptake,[4]; [5],2.91 ± 0.23 % ID/g
same,Lung uptake,[4]; [5],1.86 ± 0.19 % ID/g
same,Muscle uptake,[4]; [5],1.88 ± 0.16 % ID/g
same,Small intestine uptake,[4]; [5],1.05 ± 0.20 % ID/g
same,Spleen uptake,[4]; [5],1.23 ± 0.11 % ID/g
same,Thyroid gland uptake,[4]; [5],0.04 ± 0.01 % ID
same,Tumor/Blood ratio,[4]; [6],63.48
same,Tumor/Muscle ratio,[4]; [6],6.18
same,Blood uptake,[4]; [6],0.09 ± 0.02 % ID/g
same,Bone uptake,[4]; [6],0.76 ± 0.17 % ID/g
same,Heart uptake,[4]; [6],1.40 ± 0.14 % ID/g
same,Kidney uptake,[4]; [6],3.12 ± 0.82 % ID/g
same,Liver uptake,[4]; [6],2.13 ± 0.46 % ID/g
same,Lung uptake,[4]; [6],0.76 ± 0.20 % ID/g
same,Muscle uptake,[4]; [6],0.96 ± 0.12 % ID/g
same,Small intestine uptake,[4]; [6],0.42 ± 0.13 % ID/g
same,Spleen uptake,[4]; [6],0.80 ± 0.15 % ID/g
same,Thyroid gland uptake,[4]; [6],0.02 ± 0.00 % ID
same,Tumor uptake,[4]; [5],6.11 ± 0.76 % ID/g
same,Tumor uptake,[4]; [6],5.92 ± 0.30 % ID/g
